Values of other authors, collected in US20210161950A1, “Veterinary Supplement for Effecting Bone and Cartilage” (priority 2017, published 2021).

Assays:
osteoarthritis = conditions: meta-analysis
[1] = tested on: degenerated cartilage of the mandibular joint; conditions: oral strontium

For `N[C@H]1C(O)O[C@H](CO)[C@@H](O)[C@@H]1O.O=S(=O)(O)O` (stereo partly drawn) [glucosamine sulfate], the “connective tissue surrounding bones” value (bone fractures in rats; rats, after 4 weeks of 230 milligrams glucosamine sulfate daily) is listed as “more cellular and vascular” and the “strength of newly formed, previously fractured bones” value (bone fractures in rats; rats, after 4 weeks of 230 milligrams glucosamine sulfate daily, compared to controls) is listed as “stronger compared to controls”.
In the case of `N[C@H]1C(O)O[C@H](CO)[C@@H](O)[C@@H]1O` (stereo partly drawn) [glucosamine], the mobility of joints (osteoarthritis) is listed as “Improves mobility of joints”, the osteoarthritis progression (osteoarthritis) is listed as “Reduces osteoarthritis progression” and the pain (osteoarthritis) is listed as “Reduces pain”. The “risk of total joint replacement” value (osteoarthritis) was “Reduces risk of total joint replacement”, the “new bone formation and osteoblast lining” value (bone fractures in rats; glucosamine-treated rats compared to control groups) was “significantly higher” and the “healing time of bone fractures” value (bone fractures in rats; rats) was “helped accelerate the healing time”.
For `[Sr+2]` [strontium], the “cartilage thickness and cell density” value [1] is given as “increased cartilage thickness and cell density”, the “expression of cartilage catabolic factors and pro-inflammatory cytokines” value [1] is given as “decreased expression” and the “expression of cartilage matrix molecules such as Collagen II and aggrecan” value [1] is given as “increased expression”. For the same compound, the “subchondral bone loss and mandibular condylar cartilage degradation” value [1] was “reversed”.
